Results taken from patent US12042493B2, “Pharmaceutical compounds for use in treating Huntington's disease” (ADEPTIO PHARMACEUTICALS LIMITED, priority 2018, dated 2024).
Entries after “also recorded” stand apart in the source; their conditions may differ.

Tests used:
[1] = system: R6/2 mouse model of Huntington's disease; experiment: Survival rates in R6/2 mouse model of Huntington's disease; format: in vivo; settings: for Number of mice alive at the end of the study / Survival Rate (%): male R6/2 mice
Experimental: The objective of this study was to investigate the efficacy of (+)-α-dihydrotetrabenazine in the R6/2 mouse model of Huntington's disease. The mice were treated with (+)-α-dihydrotetrabenazine ((+)-α-DHTBZ), tetrabenazine (TBZ) or vehicle starting at 4 weeks of age and continuing until 13 weeks of age.
In total, 38 male R6/2 mice and 9 wild type (WT) littermates were used in the study. Mice were dosed from 4 weeks of age until 13 weeks of age. During the course of the study, the body weight of the animals was measured twice-α-week for the whole study duration. At the end of the study, the mice were sacrificed and only tail samples were collected.
All animal experiments were performed as specified in the license authorized by the national Animal Experiment Board of Finland and according to the National Institutes of Health (Bethesda, MD, USA) guidelines for the care and use of laboratory animals. In total, 38 male R6/2 mice and 9 wild type (WT) littermates were used in the study. Only mice with normal plasma bile acid levels were used for the study.
Animals were grouped as follows: • Group 1: 9 male wild-type (WT) mice treated with vehicle (p.o.) from 4-13 weeks of age • Group 2: 9 male R6/2 mice treated with vehicle (p.o.) from 4-13 weeks of age • Group 3: 10 male R6/2 mice treated with (+)-α-DHTBZ (1.5 mg/kg, p.o.) from 4-13 weeks of age • Group 4: 10 male R6/2 mice treated with (+)-α-DHTBZ (3 mg/kg, p.o.) from 4-13 weeks of age • Group 5: 9 male R6/2 mice treated with tetrabenazine (1.5 mg/kg, p.o.) from 4-13 weeks of age
(+)-α-DHTBZ, TBZ and vehicle were administered each day (10 ml/kg, p.o., QD) at approximately the same time of the day for all the mice, starting at 9 a.m.-11 a.m., when the daily dosing was performed at least 1 hour before the tests.
The mice were monitored until end point or the fulfilment of the euthanasia criteria.
A one-tailed, N-1 Two Proportion Test was used to determine statistically significant differences in the survival rates between the treatment groups.

[2] = system: R6/2 mouse model of Huntington's disease; experiment: Tremor evaluation in the Tremor Monitor chamber, R6/2 mice; format: in vivo; settings: 3.0 mg/kg p.o., pairwise t-test vs R6/2 Vehicle group, FIG. 3
Experimental: The objective of this study was to investigate the efficacy of (+)-α-dihydrotetrabenazine in the R6/2 mouse model of Huntington's disease. The mice were treated with (+)-α-dihydrotetrabenazine ((+)-α-DHTBZ), tetrabenazine (TBZ) or vehicle starting at 4 weeks of age and continuing until 13 weeks of age. […] The extent of tremor of the mice was evaluated at 7 and 13 weeks of age. […] The mice were placed inside a Tremor Monitor (San Diego Instruments, SDI) chamber for a 10 minute acclimatisation period, following which the tremor activity of the mice was measured for approximately 8 minutes. The recorded frequencies (1-64 hertz) of activity and the number of tremor events were captured electronically. Data were analysed by the Tremor Monitor software (San Diego Instruments) in a two part process. Using a Fast Fourier Transform (FFT), an output was provided showing the percentage of activity (energy) recorded at each frequency. […]

[3] = 1.5 mg/kg p.o. QD from 4-13 weeks of age
[4] = 3.0 mg/kg p.o. QD from 4-13 weeks of age

Structure (SMILES): COc1cc2c(cc1OC)C1CC(=O)C(CC(C)C)CN1CC2 (racemic) [TBZ, 1,3,4,6,7,11b-hexahydro-9,10-dimethoxy-3-(2-methylpropyl)-2H-benzo(a)quinolizin-2-one, reference compound]
- Number of mice alive at the end of the study [1, 3]: 7
- Survival Rate (%) [1, 3]: 77.8%

Structure (SMILES): COc1cc2c(cc1OC)[C@H]1C[C@@H](O)[C@H](CC(C)C)CN1CC2 [(+)-α-DHTBZ, (2R, 3R, 11bR)-3-isobutul-9,10-dimethox-1,3,4,6,7,11b-hexahydro-2H-pyrido[2,1,a]isoquinolin-2-ol]
- Tremor Power Spectral Density at 12 Hz [2]: significantly different compared to the R6/2 Vehicle group
- Survival rate / lifespan of R6/2 mice versus vehicle or tetrabenazine (in words) ([1]; R6/2 mice, at both 1.5 mg/kg and 3.0 mg/kg, listed as (+)-α-dihydrotetrabenazine): significantly longer than the survival rates of the R6/2 mice treated with vehicle or tetrabenazine; also recorded: prolonged lifespan compared to untreated control R6/2 mice and R6/2 mice that had been treated with tetrabenazine
- Number of mice alive at the end of the study [1, 3]: 10
- Survival Rate (%) [1, 3]: 100%
- Number of mice alive at the end of the study [1, 4]: 10
- Survival Rate (%) [1, 4]: 100%
